Results reported in ChEMBL document CHEMBL1201862, “PubChem BioAssay data set” (2004).
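Assay format: 96-well plates, 48-hour exposure. The concentration for 50% growth inhibition is given as GI50.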 Calls of active or inactive are those of the source. Cut-off read from the data, not from the text of the source: active = GI50 up to about 1.1 µM and inactive = higher.

Columns and labels:
Assay in all cases: NCI anticancer screen, dose series, 48 h
SR = test system: SR
HOP-92 = test system: HOP-92
SK-MEL-5 = test system: SK-MEL-5
UACC-62 = test system: UACC-62
MOLT-4 = test system: MOLT-4
NCI-H460 = test system: NCI-H460
ACHN = test system: ACHN
OVCAR-4 = test system: OVCAR-4
NCI-H23 = test system: NCI-H23
UO-31 = test system: UO-31
NCI-H522 = test system: NCI-H522
M14 = test system: M14
NCI-H226 = test system: NCI-H226
TK-10 = test system: TK-10
KM12 = test system: KM12
OVCAR-8 = test system: OVCAR-8
A498 = test system: A498

Measured: GI50

CC(C)(C)OC(=O)N[C@H]1CC(O)c2ccccc2N(CC(=O)O)C1=O (stereo not given in full)
inactive: SR > 100 µM | HOP-92 > 100 µM | SK-MEL-5 > 100 µM | UACC-62 > 100 µM | MOLT-4 > 100 µM | NCI-H460 > 100 µM | ACHN > 100 µM | OVCAR-4 > 100 µM | NCI-H23 > 100 µM | UO-31 > 100 µM | NCI-H522 > 100 µM | M14 > 100 µM | NCI-H226 > 100 µM | TK-10 > 100 µM | KM12 > 100 µM | OVCAR-8 > 100 µM

N=C(N)/N=C(/C=C/c1ccccc1)CC1OC(=O)c2ccccc21 (stereo not given)
inactive: SR > 100 µM | SK-MEL-5 > 100 µM | UACC-62 42 µM | MOLT-4 > 100 µM | A498 > 100 µM | NCI-H460 > 100 µM | ACHN > 100 µM | OVCAR-4 > 100 µM | UO-31 > 100 µM | NCI-H522 > 100 µM | M14 > 100 µM | NCI-H226 > 100 µM | KM12 > 100 µM | OVCAR-8 > 100 µM

COc1ccc(NC(=O)C2=CC(=O)c3ccc(O)cc3C2=O)c(OC)c1
inactive: SR > 100 µM | HOP-92 > 100 µM | SK-MEL-5 > 100 µM | UACC-62 > 100 µM | MOLT-4 > 100 µM | A498 > 100 µM | NCI-H460 > 100 µM | ACHN > 100 µM | OVCAR-4 > 100 µM | NCI-H23 > 100 µM | M14 > 100 µM | NCI-H226 > 100 µM | TK-10 > 100 µM | KM12 > 100 µM | OVCAR-8 > 100 µM

Nc1ccc(CCN2CCN(c3cccc(C(F)(F)F)c3)CC2)cc1
inactive: SR 58.5 µM | HOP-92 54.8 µM | SK-MEL-5 55.2 µM | UACC-62 > 100 µM | MOLT-4 4.38 µM | A498 80.9 µM | NCI-H460 > 100 µM | ACHN > 100 µM | NCI-H23 > 100 µM | UO-31 5.74 µM | NCI-H522 14.3 µM | M14 82.6 µM | NCI-H226 91.4 µM | TK-10 > 100 µM | KM12 > 100 µM | OVCAR-8 > 100 µM

N#C/C(=C\c1ccc[nH]1)C(=O)c1ccccc1
inactive: SR > 100 µM | HOP-92 70.8 µM | SK-MEL-5 > 100 µM | UACC-62 > 100 µM | MOLT-4 > 100 µM | NCI-H460 > 100 µM | ACHN > 100 µM | OVCAR-4 > 100 µM | NCI-H23 > 100 µM | UO-31 > 100 µM | NCI-H522 > 100 µM | M14 > 100 µM | NCI-H226 > 100 µM | TK-10 > 100 µM | KM12 > 100 µM | OVCAR-8 > 100 µM

Cc1cc(=O)oc2cc3c(cc12)Oc1ccccc1O3
inactive: SR > 100 µM | HOP-92 > 100 µM | SK-MEL-5 > 100 µM | UACC-62 > 100 µM | MOLT-4 > 100 µM | A498 > 100 µM | NCI-H460 51.9 µM | ACHN > 100 µM | OVCAR-4 > 100 µM | NCI-H23 89.3 µM | UO-31 > 100 µM | M14 > 100 µM | NCI-H226 > 100 µM | TK-10 > 100 µM | KM12 > 100 µM | OVCAR-8 42.7 µM

CCOC(=O)[C@H]1Nc2ccc([N+](=O)[O-])cc2C2c3ccccc3CC21 (stereo not given in full)
inactive: SR 9.93 µM | SK-MEL-5 13.1 µM | UACC-62 12.2 µM | MOLT-4 5.12 µM | NCI-H460 18.8 µM | ACHN 23.6 µM | OVCAR-4 18.4 µM | NCI-H23 15.3 µM | UO-31 15 µM | NCI-H522 6.7 µM | M14 15.2 µM | NCI-H226 19.1 µM | TK-10 27.4 µM | KM12 29.9 µM | OVCAR-8 21.4 µM

C1=CC2SSSC2C1 (stereo not given)
inactive: SR > 100 µM | HOP-92 > 100 µM | SK-MEL-5 > 100 µM | UACC-62 > 100 µM | MOLT-4 > 100 µM | NCI-H460 > 100 µM | ACHN > 100 µM | OVCAR-4 > 100 µM | NCI-H23 > 100 µM | UO-31 > 100 µM | NCI-H522 > 100 µM | M14 > 100 µM | NCI-H226 > 100 µM | TK-10 > 100 µM | KM12 > 100 µM | OVCAR-8 > 100 µM

CC(=O)NC(CCCNC(=O)N(CCCl)N=O)C(=O)NCc1ccccc1 (stereo not given)
inactive: SR 35.6 µM | HOP-92 > 100 µM | UACC-62 > 100 µM | MOLT-4 38.5 µM | NCI-H460 2.32 µM | ACHN 38.9 µM | OVCAR-4 > 100 µM | NCI-H23 > 100 µM | UO-31 > 100 µM | NCI-H522 > 100 µM | M14 > 100 µM | NCI-H226 > 100 µM | TK-10 > 100 µM | KM12 > 100 µM | OVCAR-8 > 100 µM

CCC1CC(C)=CCN1S(=O)(=O)c1ccc(C)cc1 (stereo not given)
inactive: SR 5.66 µM | SK-MEL-5 13.9 µM | UACC-62 15.5 µM | MOLT-4 28.2 µM | A498 42.6 µM | NCI-H460 21.1 µM | ACHN 37 µM | OVCAR-4 39 µM | UO-31 11.3 µM | NCI-H522 16.6 µM | M14 22 µM | NCI-H226 28.2 µM | KM12 23.4 µM | OVCAR-8 36.5 µM

O=C(Nc1ccc(Cl)cc1)C1C(=O)C(=O)N(c2ccc(Cl)cc2)C1=O (stereo not given)
inactive: SR > 100 µM | HOP-92 29.1 µM | SK-MEL-5 > 100 µM | UACC-62 > 100 µM | MOLT-4 71.3 µM | A498 60.7 µM | NCI-H460 > 100 µM | ACHN 89.9 µM | NCI-H23 > 100 µM | UO-31 79.6 µM | NCI-H522 > 100 µM | M14 > 100 µM | NCI-H226 > 100 µM | TK-10 > 100 µM | KM12 > 100 µM | OVCAR-8 > 100 µM

COc1cc(CC2c3cc(OC)c(OC)cc3CCN2C)c(C(=O)O)cc1OC (stereo not given)
inactive: SR > 100 µM | HOP-92 > 100 µM | SK-MEL-5 > 100 µM | UACC-62 > 100 µM | MOLT-4 > 100 µM | A498 > 100 µM | ACHN > 100 µM | NCI-H23 > 100 µM | UO-31 > 100 µM | NCI-H522 > 100 µM | M14 > 100 µM | NCI-H226 > 100 µM | TK-10 > 100 µM | KM12 > 100 µM | OVCAR-8 > 100 µM

CCOC(=O)CC(NC(=O)c1nc[nH]c1[N+](=O)[O-])C(=O)OCC (stereo not given)
inactive: SR 44.3 µM | SK-MEL-5 56 µM | UACC-62 66.1 µM | MOLT-4 43.1 µM | A498 61.7 µM | NCI-H460 52 µM | ACHN 42.2 µM | OVCAR-4 50.7 µM | NCI-H23 22.6 µM | UO-31 77.6 µM | NCI-H522 48.9 µM | M14 67.8 µM | NCI-H226 23 µM | TK-10 24 µM | KM12 65.8 µM | OVCAR-8 32.1 µM
